Experimental findings from patent US9676760B2, “Fused heterocyclic compounds as ion channel modulators” (Gilead Sciences, Inc., priority 2011, dated 2017) are described below.

Holding throughout (format): cell-based
Test [1] addresses T1, wild-type human cardiac sodium channel, hNav1.5 (Homo sapiens, UniProt Q14524). As to the kind of experiment: Peak INa screening assay (tonic and use-dependent block). Particulars: compound at 1 μM. Here is the method:
The late sodium current (Late INa) and peak sodium current (Peak INa) assays are performed on an automated electrophysiology platform, QPatch 16× (Sophion Bioscience, Copenhagen, Denmark), which uses the whole cell patch clamp technique to measure currents through the cell membrane of up to 16 cells at a time. The assay uses an HEK293 (human embryonic kidney) cell line heterologously expressing the wild-type human cardiac sodium channel, hNav1.5, purchased from Millipore (Billerica, Mass.). No beta subunits were coexpressed with the Na channel alpha subunit. Cells are maintained with standard tissue culture procedures and stable channel expression is maintained with 400 μg/mL Geneticin in the culture medium. Cells isolated for use on QPatch are incubated for 5 minutes in Detachin 1×(Genlantis, San Diego, USA) at 37° C. to ensure that 80-90% of the cells are single and not part of a cell cluster. Experiments are carried out at 23-25° C.
For both the Late INa and Peak INa assays, series resistance compensation is set to 100% and series resistance and whole-cell compensation are performed automatically. Currents are digitized at 25 kHz and low-pass filtered at 12 kHz and 10 kHz for the late and peak INa assays, respectively. Currents through open sodium channels are automatically recorded and stored in the Sophion Bioscience Oracle database (Sophion Bioscience, Copenhagen, Denmark). Analysis is performed using QPatch Assay and database software and data are compiled in Excel.
Compound stocks are routinely made by the Gilead Sample Bank in plastic vials to 10 mM in dimethyl sulfoxide (DMSO). In some cases, when compounds are not soluble in DMSO, they are made in 100% ethanol. Stocks are sonicated as necessary. The extracellular solution for screening Late INa is composed of: 140 mM NaCl, 4 mM KCl, 1.8 mM CaCl2, 0.75 mM MgCl2 and 5 mM HEPES with pH adjusted to 7.4 using NaOH. The intracellular solution used to perfuse the inside of the cells for both the Late INa and Peak INa assays contains: 120 mM CsF, 20 mM CsCl, 5 mM EGTA, 5 mM HEPES and pH adjusted to 7.4 with CsOH. Compounds are diluted in extracellular solution to 1 μM in glass vials and then transferred to glass well plates before robotic addition to the cells. The 0 mM Na extracellular solution (0Na-ECF) used at the end of each experiment for the Late INa and Peak INa assays to measure baseline current contains: 140 mM N-methyl-D-glucamine; 4 mM KCl; 1.8 mM CaCl2; 0.75 mM MgCl2; 5 mM HEPES and pH was adjusted to 7.4 with HCl.
Compounds were also evaluated for their effect in several other assays, including their effect on Peak INa. […] Since the peak INa in the cells used herein can be very large, introducing artifacts in the recording, the concentration of Na^+ in the bath can be reduced to 20 mM and a nonpermeant cation added to compensate for the Na^+ that was removed to maintain the osmolarity and ionic strength of the solution (see solution details below).
A low stimulation frequency of 0.1 Hz was used to determine the effect of the test compound when the channel spent most of the time in the resting (closed) state and provides information about Tonic Block (TB). A higher stimulation frequency (3 Hz) was used to measure block of the channel when it spent more time in the activated and inactivated states and provided a measure of Use-Dependent Block (UDB). Use-dependent block refers to the accumulation of block with increased frequency of channel activation.

For test [2], the target named is T1, wild-type human cardiac sodium channel, hNav1.5. As to the kind of experiment: Late INa screening assay (QPatch whole cell patch clamp, HEK293). The essentials:
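HEK293 stably expressing hNav1.5 without beta subunits, recorded at 23-25° C. Late current was induced by 10 μM tefluthrin. Cells were depolarized from −120 mV to −20 mV for 250 ms at 0.1 Hz. Compounds were tested at 1 μM in extracellular solution, with baseline taken in 0Na-ECF; output is percent block of late INa.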
(The patch-clamp technique gives a direct electrical read-out from membranes.)

Test [3] deals with T2, hNav 1.2 sodium channel isoform (Homo sapiens, UniProt Q99250).
T2 construct: expressed in transfected cells
T2 sequence (Q99250 whole entry, canonical isoform): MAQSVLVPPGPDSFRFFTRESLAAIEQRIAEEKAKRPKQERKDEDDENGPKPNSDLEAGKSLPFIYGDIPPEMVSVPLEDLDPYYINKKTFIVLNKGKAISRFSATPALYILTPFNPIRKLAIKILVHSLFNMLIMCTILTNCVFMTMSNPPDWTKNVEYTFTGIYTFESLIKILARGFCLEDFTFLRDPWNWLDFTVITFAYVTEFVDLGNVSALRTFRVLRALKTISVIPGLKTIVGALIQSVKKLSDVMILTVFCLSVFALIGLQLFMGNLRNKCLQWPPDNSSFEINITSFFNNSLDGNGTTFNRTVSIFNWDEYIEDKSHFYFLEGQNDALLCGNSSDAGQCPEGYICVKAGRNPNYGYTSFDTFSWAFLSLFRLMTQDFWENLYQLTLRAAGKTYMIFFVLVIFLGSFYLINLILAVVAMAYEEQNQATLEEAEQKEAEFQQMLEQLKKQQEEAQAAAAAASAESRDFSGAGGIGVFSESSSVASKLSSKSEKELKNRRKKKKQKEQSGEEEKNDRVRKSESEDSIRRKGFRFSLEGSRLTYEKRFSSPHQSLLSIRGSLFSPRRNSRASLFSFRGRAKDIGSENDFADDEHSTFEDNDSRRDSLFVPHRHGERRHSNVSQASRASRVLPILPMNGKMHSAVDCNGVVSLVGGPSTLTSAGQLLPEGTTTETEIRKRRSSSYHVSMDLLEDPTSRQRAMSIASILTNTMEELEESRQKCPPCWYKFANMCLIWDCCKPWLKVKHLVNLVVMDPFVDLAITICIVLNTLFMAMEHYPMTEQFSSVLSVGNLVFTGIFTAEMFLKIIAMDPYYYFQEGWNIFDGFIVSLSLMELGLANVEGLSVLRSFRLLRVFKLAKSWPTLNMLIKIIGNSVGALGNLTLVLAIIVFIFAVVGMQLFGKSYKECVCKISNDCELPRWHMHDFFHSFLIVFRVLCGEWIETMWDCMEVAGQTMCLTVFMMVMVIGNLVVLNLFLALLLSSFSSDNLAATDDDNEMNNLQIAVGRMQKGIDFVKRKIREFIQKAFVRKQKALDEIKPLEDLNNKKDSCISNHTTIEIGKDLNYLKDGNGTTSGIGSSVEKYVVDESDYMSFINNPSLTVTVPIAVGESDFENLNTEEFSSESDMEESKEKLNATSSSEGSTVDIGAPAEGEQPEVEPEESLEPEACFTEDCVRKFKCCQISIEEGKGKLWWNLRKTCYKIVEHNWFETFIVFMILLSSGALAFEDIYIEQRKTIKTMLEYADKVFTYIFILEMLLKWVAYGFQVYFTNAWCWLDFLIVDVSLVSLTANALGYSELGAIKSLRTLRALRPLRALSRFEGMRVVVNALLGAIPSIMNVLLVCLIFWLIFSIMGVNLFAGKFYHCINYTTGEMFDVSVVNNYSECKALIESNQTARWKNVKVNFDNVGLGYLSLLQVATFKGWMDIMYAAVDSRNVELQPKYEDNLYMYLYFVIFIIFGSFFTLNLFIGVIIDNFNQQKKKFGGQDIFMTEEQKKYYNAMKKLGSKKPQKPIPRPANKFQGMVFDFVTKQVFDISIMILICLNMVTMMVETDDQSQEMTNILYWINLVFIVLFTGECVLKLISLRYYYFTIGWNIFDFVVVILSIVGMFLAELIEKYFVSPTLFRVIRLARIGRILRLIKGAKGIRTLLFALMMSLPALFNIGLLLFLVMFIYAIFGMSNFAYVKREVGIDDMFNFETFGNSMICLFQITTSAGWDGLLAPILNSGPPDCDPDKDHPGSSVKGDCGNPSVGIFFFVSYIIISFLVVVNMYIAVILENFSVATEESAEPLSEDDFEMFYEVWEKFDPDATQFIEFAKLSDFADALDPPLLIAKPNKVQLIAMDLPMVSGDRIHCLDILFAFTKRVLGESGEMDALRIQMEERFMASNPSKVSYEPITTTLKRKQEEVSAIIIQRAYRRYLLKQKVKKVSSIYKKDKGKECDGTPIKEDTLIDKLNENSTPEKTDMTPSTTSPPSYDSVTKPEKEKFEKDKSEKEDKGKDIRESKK
As to the kind of experiment: hNav1.2 whole-cell voltage-clamp assay. Particulars: use-dependent block, 10 Hz, read-out: NAV1.2* UDB-10HZ. Here is the method:
Wild-type (WT) cDNA stably transfected in Chinese hamster ovary (CHO) cells is used to record INa. Unless otherwise noted, all reagents are purchased from Sigma-Aldrich (St Louis, Mo., U.S.A.).
Whole-cell voltage-clamp recordings are used to measure the biophysical properties of WT. […] Cells are allowed to stabilize for 10 min after establishment of the whole-cell configuration before current is measured. Series resistance is compensated 90% to assure that the command potential is reached within microseconds with a voltage error<2 mV. Leak currents are subtracted by using an online P/4 procedure and all currents are low-pass Bessel filtered at 5 kHz and digitized at 50 kHz.
For clarity, representative ramp currents are low pass filtered off-line at 50 Hz. Specific voltage-clamp protocols assessing channel activation, fast inactivation and availability during repetitive stimulation are used. Results are presented as mean±SEM.
Tonic block of peak current is measured using a step to −10 mV (20 ms) from a holding potential of −120 mV (0.2 Hz). Use-dependent block of peak current is measured during pulse number 300 of a pulse train (−10 mV, 5 ms, 300 pulses, 10 Hz or 25 Hz) from a holding potential of −120 mV. Two sequential pulse train stimulations are averaged to obtain mean current traces for each recording condition, which are then used for offline subtraction and analysis.
For use-dependent studies, cells are stimulated with depolarizing pulse trains (−10 mV, 5 ms, 300 pulses, 10 and 25 Hz) from a holding potential of −120 mV. Currents are then normalized to the peak current recorded in response to the first pulse in each frequency train. For tonic block studies, peak current is evaluated in response to a 20 ms depolarization to −10 mV (0.2 Hz). […] Results are presented as mean±SEM.
A stock solution of 10 mM compound of Formula I is prepared in 0.1 M HCl or DMSO. […] The final DMSO concentration was kept at 0.1% in all solutions. Direct application of the perfusion solution to the clamped cell is achieved using the Perfusion Pencil system (Automate, Berkeley, Calif.). Direct cell perfusion is driven by gravity at a flow rate of 350 μL/min using a 250 micron tip. This system sequesters the clamped cell within a perfusion stream and enables complete solution exchange within 1 second. The clamped cell is perfused continuously starting immediately after establishing the whole-cell configuration. Control currents are measured during control solution perfusion.
Solutions are perfused for three minutes prior to current recordings to allow equilibrium (tonic) drug block. Tonic block of peak currents is measured from this steady-state condition. Three sequential current traces are averaged to obtain a mean current for each recording. The mean current traces are utilized for offline analysis. Use-dependent block of peak current is measured during pulse number 300 of the pulse train, (−10 mV, 5 ms, 300 pulses, 10 Hz) from a holding potential of −120 mV.

Test [4] deals with T3, hNav 1.1 sodium channel isoform (Homo sapiens, UniProt P35498).
T3 construct: expressed in transfected cells; host or cells: HEK293, transient transfection (Qiagen Superfect)
As to the kind of experiment: hNav1.1 whole-cell voltage-clamp assay. Particulars: % Inhibition at 1 uM; use-dependent block, 10 Hz; read-out: NAV1.1* UDB-10HZ.

Setting [5] is: tonic block of peak INa, 0.1 Hz, read-out: Peak TB 1 μM.
Setting [6] is: use-dependent block of peak INa, 3 Hz, read-out: Peak UDB 1 μM.
[7] abbreviates: HEK293, % Inhibition at 1 uM, read-out: Late INa*.
Where [8] appears, read: HEK293, percent block of late INa, compound at 1 μM, 10 μM Tefluthrin, read-out: Late INa 1 μM.

T1 sequence (Q14524 whole entry): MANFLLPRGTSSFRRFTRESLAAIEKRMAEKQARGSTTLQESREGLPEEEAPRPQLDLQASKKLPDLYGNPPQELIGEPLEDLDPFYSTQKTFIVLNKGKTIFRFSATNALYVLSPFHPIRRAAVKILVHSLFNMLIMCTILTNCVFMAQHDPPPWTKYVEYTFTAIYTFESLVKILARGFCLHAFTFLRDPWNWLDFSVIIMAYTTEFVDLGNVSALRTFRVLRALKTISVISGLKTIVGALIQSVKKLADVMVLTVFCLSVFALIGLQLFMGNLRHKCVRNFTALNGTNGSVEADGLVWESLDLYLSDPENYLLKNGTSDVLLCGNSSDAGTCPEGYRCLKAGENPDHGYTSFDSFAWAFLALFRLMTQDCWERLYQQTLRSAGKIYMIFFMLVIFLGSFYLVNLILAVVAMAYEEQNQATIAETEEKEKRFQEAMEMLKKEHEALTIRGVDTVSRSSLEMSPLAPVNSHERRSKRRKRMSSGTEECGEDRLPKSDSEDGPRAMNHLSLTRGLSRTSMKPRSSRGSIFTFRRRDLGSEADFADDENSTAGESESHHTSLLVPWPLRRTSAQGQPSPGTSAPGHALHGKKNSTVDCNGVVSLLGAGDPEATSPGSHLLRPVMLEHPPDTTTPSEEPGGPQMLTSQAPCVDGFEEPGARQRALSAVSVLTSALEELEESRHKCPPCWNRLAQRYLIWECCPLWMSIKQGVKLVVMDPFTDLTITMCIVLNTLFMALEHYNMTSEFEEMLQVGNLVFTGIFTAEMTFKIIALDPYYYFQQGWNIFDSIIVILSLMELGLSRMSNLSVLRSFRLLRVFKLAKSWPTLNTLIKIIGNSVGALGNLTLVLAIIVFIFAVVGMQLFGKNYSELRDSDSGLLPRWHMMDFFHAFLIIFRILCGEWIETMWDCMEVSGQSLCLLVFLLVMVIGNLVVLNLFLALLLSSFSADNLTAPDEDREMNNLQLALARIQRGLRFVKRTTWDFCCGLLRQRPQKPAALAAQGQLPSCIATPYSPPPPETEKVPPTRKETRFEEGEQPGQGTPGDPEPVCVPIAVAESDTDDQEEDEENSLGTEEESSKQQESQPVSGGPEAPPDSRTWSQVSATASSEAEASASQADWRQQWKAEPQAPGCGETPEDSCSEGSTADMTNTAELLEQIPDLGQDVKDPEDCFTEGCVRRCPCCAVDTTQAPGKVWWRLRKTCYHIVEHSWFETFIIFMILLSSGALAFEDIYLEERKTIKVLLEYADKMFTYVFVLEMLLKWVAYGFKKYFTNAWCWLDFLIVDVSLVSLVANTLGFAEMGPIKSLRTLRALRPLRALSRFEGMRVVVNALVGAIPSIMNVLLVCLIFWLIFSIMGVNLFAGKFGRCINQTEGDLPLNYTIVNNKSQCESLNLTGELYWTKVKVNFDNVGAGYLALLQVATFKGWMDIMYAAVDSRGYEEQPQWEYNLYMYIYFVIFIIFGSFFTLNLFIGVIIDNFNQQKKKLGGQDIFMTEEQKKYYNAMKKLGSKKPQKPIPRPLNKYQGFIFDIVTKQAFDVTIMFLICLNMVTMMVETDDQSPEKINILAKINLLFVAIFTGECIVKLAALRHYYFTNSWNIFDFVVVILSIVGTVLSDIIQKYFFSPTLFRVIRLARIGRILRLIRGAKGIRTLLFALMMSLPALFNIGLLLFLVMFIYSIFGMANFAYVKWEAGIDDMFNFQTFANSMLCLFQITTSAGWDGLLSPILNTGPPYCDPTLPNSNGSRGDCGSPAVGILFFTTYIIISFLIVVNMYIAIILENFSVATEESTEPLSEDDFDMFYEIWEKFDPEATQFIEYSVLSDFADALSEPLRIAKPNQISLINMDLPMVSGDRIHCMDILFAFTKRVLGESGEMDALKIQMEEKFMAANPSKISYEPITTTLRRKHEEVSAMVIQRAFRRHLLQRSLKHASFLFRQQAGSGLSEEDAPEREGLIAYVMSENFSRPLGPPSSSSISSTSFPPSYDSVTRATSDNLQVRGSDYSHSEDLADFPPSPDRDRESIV

Take `CC1CC=C(c2ccc3c(c2)C(=O)N(Cc2ncccn2)CCO3)CC1` (centres unmarked) [Compound V-5, 7-(4-methylcyclohex-1-enyl)-4-(pyrimidin-2-ylmethyl)-3,4-dihydrobenzo[f][1,4]oxazepin-5(2H)-one]: the inhibition at 1 µM is 5% in test [1] (setting [5]); 5% in test [1] (setting [6]); 49% in test [2] (setting [7]); 49% in test [2] (setting [8]); 3% in test [3]; -18% in test [4].

Consider `O=C1c2cc(-c3ccc(OC(F)(F)F)cc3)ccc2OCCN1Cc1ccc2ccccc2n1` [II-7, 4-(quinolin-2-ylmethyl)-7-(4-(trifluoromethoxy)phenyl)-3,4-dihydrobenzo[f][1,4]oxazepin-5(2H)-one], for which the inhibition at 1 µM came to 34% in test [2] (setting [7]), 34% in test [2] (setting [8]), 13% in test [3] and 0% in test [4].

Regarding `COc1cc(OC)nc(CN2CCOc3ccc(-c4ccc(OC(F)(F)F)cc4)cc3C2=O)n1` [II-42, 4-((4,6-dimethoxypyrimidin-2-yl)methyl)-7-(4-(trifluoromethoxy)phenyl)-3,4-dihydrobenzo[f][1,4]oxazepin-5(2H)-one], the inhibition at 1 µM was 34% in test [2] (setting [7]), 34% in test [2] (setting [8]), 12% in test [3] and 2% in test [4].

With `CN1CCOc2ccc(-c3ccc(OC(F)(F)F)cc3)cc2C1=O` [II-46, 4-methyl-7-(4-(trifluoromethoxy)phenyl)-3,4-dihydrobenzo[f][1,4]oxazepin-5(2H)-one], the inhibition at 1 µM in test [2] (setting [7]) was found to be 25%; in test [2] (setting [8]), 25%; in test [3] it was 16%; in test [4], 2%.

For `COc1cccnc1CN1CCOc2ccc(-c3ccc(OC(F)(F)F)cc3)cc2C1=O` [II-143, 4-((3-methoxypyridin-2-yl)methyl)-7-(4-(trifluoromethoxy)phenyl)-3,4-dihydrobenzo[f][1,4]oxazepin-5(2H)-one], the inhibition at 1 µM was 65% in test [2] (setting [7]), 65% in test [2] (setting [8]), 44% in test [3] and 29% in test [4].

With `O=C1c2nc(-c3ccc(OC(F)(F)F)cc3)ccc2OCCN1Cc1ccccc1` [XII-2, 4-benzyl-7-(4-(trifluoromethoxy)phenyl)-3,4-dihydropyrido[2,3-f][1,4]oxazepin-5(2H)-one], the inhibition at 1 µM in test [1] (setting [5]) was determined as 45%; in test [1] (setting [6]), 64%; in test [2] (setting [8]), 57%.

Turning to `O=C1c2nc(-c3ccc(C(F)(F)F)cc3)ccc2OCCN1Cc1ccccc1` [XII-3, 4-benzyl-7-(4-(trifluoromethyl)phenyl)-3,4-dihydropyrido[2,3-f][1,4]oxazepin-5(2H)-one], the inhibition at 1 µM in test [1] (setting [5]) worked out at 51%; in test [1] (setting [6]), 79%; in test [2] (setting [8]), 44%.

In the case of `Cc1ccnc(CN2CCOc3cnc(-c4ccc(OC(F)(F)F)cc4)cc3C2=O)n1` [XII-8, 4-((4-methylpyrimidin-2-yl)methyl)-7-(4-(trifluoromethoxy)phenyl)-3,4-dihydropyrido[4,3-f][1,4]oxazepin-5(2H)-one], the inhibition at 1 µM in test [2] (setting [7]) is 36%; in test [2] (setting [8]) it was 36%; in test [3], 11%; in test [4] it was 11%.

As for `COc1cccnc1CN1CCOc2cnc(-c3ccc(OC(F)(F)F)cc3)cc2C1=O` [XII-10, 4-((3-methoxypyridin-2-yl)methyl)-7-(4-(trifluoromethoxy)phenyl)-3,4-dihydropyrido[4,3-f][1,4]oxazepin-5(2H)-one], the inhibition at 1 µM in test [1] (setting [5]) was 13%; in test [1] (setting [6]) it was 20%; in test [2] (setting [8]), 45%.

For `O=C1c2cc(-c3ccc(OC(F)(F)F)cc3)ncc2OCCN1Cc1ncccc1F` [XII-11, 4-((3-fluoropyridin-2-yl)methyl)-7-(4-(trifluoromethoxy)phenyl)-3,4-dihydropyrido[4,3-f][1,4]oxazepin-5(2H)-one], the inhibition at 1 µM in test [1] (setting [5]) turned out to be 25%; in test [1] (setting [6]), 24%; in test [2] (setting [8]) it was 55%.

For the compound `O=C1c2cc(Nc3ccc(OC(F)(F)F)cc3)ccc2OCCN1Cc1ccccn1` [XIII-4, 4-(pyridin-2-ylmethyl)-7-(4-(trifluoromethoxy)phenylamino)-3,4-dihydrobenzo[f][1,4]oxazepin-5(2H)-one], the results for the inhibition at 1 µM in test [1] (setting [5]), in test [1] (setting [6]) and in test [2] (setting [8]) were 8%, 9% and 51%, respectively.

Regarding `O=C1c2cc(Nc3ccc(C(F)(F)F)cc3)ccc2OCCN1Cc1ccccn1` [XIII-6, 4-(pyridin-2-ylmethyl)-7-(4-(trifluoromethyl)phenylamino)-3,4-dihydrobenzo[f][1,4]oxazepin-5(2H)-one], the inhibition at 1 µM in test [1] (setting [5]) came out at 8%; in test [1] (setting [6]) it was 8%; in test [2] (setting [8]), 60%.
